{
  "source": "patent US20240000802A1",
  "about": "“DIFLUPREDNATE FOR REDUCING THE ADVERSE EFFECTS OF OCULAR INFLAMMATION” (SUN PHARMA ADVANCED RESEARCH COMPANY LIMITED, priority 2020, published 2024)",
  "origin": "cited, not measured here",
  "data": [
    {"smiles": "CCCC(=O)O[C@]1(C(=O)COC(C)=O)CC[C@H]2[C@@H]3C[C@H](F)C4=CC(=O)C=C[C@]4(C)[C@@]3(F)[C@@H](O)C[C@@]21C", "note": "[Difluprednate]", "values": [
      {"measurement": "solubility in aqueous vehicle", "result": "practically insoluble"}
    ]}
  ]
}
